# Test results from patent publication US20170321283A1, “METHODS OF DIAGNOSING CANCER AND OF PREDICTING RESPONSE OF CANCER TO DENDROGENIN A TREATMENT” (INSERM (INSTITUT NATIONAL DE LA SANTÉ ET DE LA RECHERCHE …, priority 2014, published 2017).
# “Also recorded” adds a separate entry of the source.
# T1: hGSTA1 (Homo sapiens, UniProt P08263)
# T1 construct: purchased Novus NBP1-30307
# T1 sequence (P08263 1-222): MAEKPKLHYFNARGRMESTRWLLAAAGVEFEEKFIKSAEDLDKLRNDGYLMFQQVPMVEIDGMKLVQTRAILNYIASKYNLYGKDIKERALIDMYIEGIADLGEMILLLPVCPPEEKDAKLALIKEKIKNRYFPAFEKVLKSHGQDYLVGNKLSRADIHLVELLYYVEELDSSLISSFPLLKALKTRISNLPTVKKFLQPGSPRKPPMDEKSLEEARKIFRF
# Columns and labels:
# hGSTA1 [1] = target: T1, hGSTA1; test: CDO-SG biosynthesis by hGSTA1 (glutathionylation of 5,6α-EC); assay type: biochemical; conditions: for Inhibition of CDO-SG biosynthesis: 1 and 10 mM CDNB, 1 and 10 μM HA, 1 μM 5,6β-EC, 10 μM CT, OCDO, 27-HC or 22(R)-HC (FIG. 2g-h)
# Procedure: (§1) The mixture was incubated for 30 minutes at 30° C., and the reaction was stopped by addition of 200 μl MeOH. After centrifugation 10 min at 18,000 g (4° C.), the supernatant was evaporated to dryness using a speed vac concentrator (Savant SP01010, Thermo scientific) and the residue was resuspended in 20 μl MeOH. Samples were spotted on HPTLC NanoSilgur 10×10 cm plates (Macherey Nagel, ref 811042) and developed using ethyl acetate/butanol/acetic acid/water (6:2:3:2) for CDO-SG and CH2Cl/MeOH/NH4OH 84:15:1 for DDA. Standards were co-spotted with samples. […] The radioactivity was quantified by liquid scintillation counting of the ethanol extract of the silica scraped at the retention factor (Rf) corresponding to authentic 5,6α-EC, CDO-SG or DDA standards.
# hGSTA1 [2] = target: T1, hGSTA1; test: DDA biosynthesis by hGSTA1 (histaminylation of 5,6α-EC, DDAS activity); assay type: biochemical; conditions: for Inhibition of DDA biosynthesis (DDAS): 10 mM CDNB, 1 μM 5,6β-EC or 10 μM CT, OCDO, 27-HC or 22(R)-HC (FIG. 3d-e)
# Procedure: as §1
# hGSTA1 [3] = target: T1, hGSTA1; test: Glutathionylation of CDNB by recombinant hGSTA1 (CDNB-SG biosynthesis); assay type: biochemical; conditions: for Inhibition of CDNB-SG biosynthesis: 1 and 10 μM 5,6α-EC or HA (FIG. 2c)
# Procedure: The mixture was incubated for 30 min at 30° C. and the reaction was stopped with 200 μl MeOH. Measurements were carried out spectrophotometrically at 345 nm (Am=8.5 mM^−1·cm^−1). The negative control corresponds to the same test performed in absence of hGSTA1.
# LXR = conditions: endogenous LXR ligand; cited from earlier work
# [4] = substrate: NCCc1c[nH]cn1; test: purified protein, by the assay type; conditions: other: substrates 5,6α-EC + histamine, product DDA; pH 7.5; 30.0 °C
# [5] = substrate: N[C@@H](CCC(=O)N[C@@H](CS)C(=O)NCC(=O)O)C(=O)O; test: purified protein, by the assay type; conditions: other: substrates 5,6α-EC + GSH, product CDO-SG; pH 7.5; 30.0 °C
# [6] = substrates 5,6α-EC + GSH, product CDO-SG, Table 1
# [7] = substrates 5,6α-EC + histamine, product DDA, Table 1
molecule,measurement,setting,value
"O=[N+]([O-])c1ccc(Cl)c([N+](=O)[O-])c1 [CDNB, 1-chloro-2,4-dinitrobenzene]",Inhibition of CDO-SG biosynthesis,hGSTA1 [1],did not inhibit
same,Inhibition of DDA biosynthesis (DDAS),hGSTA1 [2],did not inhibit
same,Vm^CDNB,hGSTA1 [3]; CDNB + GSH to CDNB-SG,274 μmol·min^−1·mg prot
same,Km,"hGSTA1 [3]; read-out: Km^CDNB, substrates CDNB + GSH, product CDNB-S-G",32.2 µM
same,Vm^CDNB,"hGSTA1 [3]; substrates CDNB + GSH, product CDNB-S-G, Table 1",274 µmol/min/mg
"N[C@@H](CCC(=O)N[C@@H](CS)C(=O)NCC(=O)O)C(=O)O [GSH, glutathione]",Vm^GSH,hGSTA1 [1]; [6],1.50 pmol · min^−1 · mg · pr
same,IC50,"hGSTA1 [2]; read-out: IC50, inhibition of the biosynthesis of DDA",52 µM
same,Vm^GSH,hGSTA1 [3]; CDNB + GSH to CDNB-SG,8.12 μmol·min^−1·mg prot
"CC(C)CCCC(C)[C@H]1CCC2C3C[C@@H](NCCc4cnc[nH]4)[C@@]4(O)C[C@@H](O)CC[C@]4(C)C3CC[C@@]21C (some centres unmarked) [DDA, 5-hydroxy-6-[2-(1H-imidazol-4-yl)ethylamino]cholestan-3-ol]",affinity for LXR,LXR,sub-μM
"CC(C)CCC[C@@H](C)[C@H]1CC[C@H]2[C@@H]3C[C@@H]4O[C@@]45C[C@@H](O)CC[C@]5(C)[C@H]3CC[C@]12C [5,6α-EC, 5,6α-epoxy-cholesterol]","Vm^5,6-EC","hGSTA1 [1]; 5,6-EC + GSH to CDO-SG",1.33 pmol·min^−1·mg prot
same,"higher affinity of hGSTA1 for 5,6-EC than for CDNB",hGSTA1 [1]; ratio of Km,73 fold
same,Km,"hGSTA1 [1]; substrates 5,6α-EC + GSH, product CDO-SG",0.44 µM
same,"Vm^5,6-EC",hGSTA1 [1]; [6],1.33 pmol · min^−1 · mg.pr
same,"catalytic efficiency higher to transform 5,6α-EC compared to CDNB",hGSTA1 [2],60 fold
same,"Vm^5,6EC","hGSTA1 [2]; 5,6-EC + HA to DDA",0.81 pmol·min^−1·mg prot
same,Km,"hGSTA1 [2]; substrates 5,6α-EC + histamine, product DDA",0.28 µM
same,"Vm^5,6-EC",hGSTA1 [2]; [7],0.81 pmol · min^−1 · mg.pr
same,Inhibition of CDNB-SG biosynthesis,hGSTA1 [3],not inhibitors
"CC(C)CCC[C@@H](C)[C@H]1CC[C@H]2[C@@H]3C[C@@H](SC[C@H](NC(=O)CC[C@H](N)C(=O)O)C(=O)NCC(=O)O)[C@@]4(O)C[C@@H](O)CC[C@]4(C)[C@H]3CC[C@]12C [CDO-SG, 3β,5α-dihydroxycholestan-6β-yl-S-glutathione]",weaker capacity to produce CDO-SG than to produce CDNB-SG,hGSTA1 [1]; ratio of maximum velocities,24.10^6 fold
CC(C)CCC[C@@H](C)[C@H]1CC[C@H]2[C@@H]3CC(=O)[C@@]4(O)C[C@@H](O)CC[C@]4(C)[C@H]3CC[C@]12C [OCDO],Inhibition of CDO-SG biosynthesis,hGSTA1 [1],potent inhibitors
CC(C)CCC[C@@H](C)[C@H]1CC[C@H]2[C@@H]3C[C@@H](O)[C@@]4(O)C[C@@H](O)CC[C@]4(C)[C@H]3CC[C@]12C [CT],Inhibition of CDO-SG biosynthesis,hGSTA1 [1],potent inhibitors
"CC(C)CCC[C@@H](C)[C@H]1CC[C@H]2[C@@H]3C[C@H]4O[C@]45C[C@@H](O)CC[C@]5(C)[C@H]3CC[C@]12C [5,6β-EC, 5,6β-epoxy-cholesterol]",Inhibition of CDO-SG biosynthesis,hGSTA1 [1],potent inhibitors
same,Inhibition of DDA biosynthesis (DDAS),hGSTA1 [2],most potent inhibitor; also recorded: potent inhibitor
"NCCc1c[nH]cn1 [HA, histamine]",Inhibition of CDO-SG biosynthesis,hGSTA1 [1],potent inhibitor
same,catalytic efficiency higher to transform HA compared to GSH,hGSTA1 [2],60 fold
same,weaker Km for HA than for GSH,hGSTA1 [2]; DDA biosynthesis versus CDO-SG biosynthesis,135 fold
same,Vm^His,hGSTA1 [2]; [7],0.66 pmol · min^−1 · mg · pr
same,Inhibition of CDNB-SG biosynthesis,hGSTA1 [3],not inhibitors
hGSTA1 (Homo sapiens) (protein) MAEKPKLHYFNARGRMESTRWLLAAAGVEFEEKFIKSAEDLDKLRNDGYLMFQQVPMVEIDGMKLVQTRAILNYIASKYNLYGKDIKERALIDMYIEGIADLGEMILLLPVCPPEEKDAKLALIKEKIKNRYFPAFEKVLKSHGQDYLVGNKLSRADIHLVELLYYVEELDSSLISSFPLLKALKTRISNLPTVKKFLQPGSPRKPPMDEKSLEEARKIFRF,Km,[4],0.35 µM
same,Vmax,[4],0.66 pmol·min^−1·mg prot
same,Km,[5],47 µM
same,Vmax,[5],1.50 pmol·min^−1·mg prot
